The values below are quoted from earlier work in publication PMC8329336, “The Role of Co-Signaling Molecules in Psoriasis and Their Implications for Targeted Treatment” (Frontiers in Pharmacology, 2021).

Like-named read-outs stand apart in the source and are kept apart here.

Data set [1] relates to ICAM-1. The arrangement: method as in Wen et al., 2014; Xiong et al., 2015. The settings on record: ref Wen et al., 2014; Xiong et al., 2015.
Data set [2] concerns LFA-1. The settings on record: led to withdrawal from the US market in 2009; ref Kuschei et al., 2011; Hsu and Tsai, 2020.
In data set [3] the test system is LFA-1. The arrangement: method as in Guttman-Yassky et al., 2008; Grönholm et al., 2016. The settings on record: ref Guttman-Yassky et al., 2008; Grönholm et al., 2016.
Data set [4] has as its system human T cells. The arrangement: method as in Kuschei et al., 2011. The settings on record: ref Kuschei et al., 2011.
Data set [5] deals with OX40.
In data set [6] the test system is p40 subunits of IL-23 and IL-12. On the set-up: method as in Lebwohl et al., 2015. The conditions noted are these: through binding to the p40 subunits of IL-23 and IL-12; ref Lebwohl et al., 2015.
The subject of data set [7] is CD40. The settings on record: for Efficacy (PASI scores of psoriasis) / Adverse event: patients with psoriasis, ref Anil Kumar et al. (2018); for Efficacy (PASI scores of psoriasis): Phase I; for Adverse event: limited number of patients.
The mark [8] stands for this setting: Phase I, ref Papp et al. (2017).

Regarding `CC(C)=CCC[C@]1(C)C=Cc2c(O)c3c(c(CC=C(C)C)c2O1)O[C@]12C(=C[C@@H]4C[C@H]1C(C)(C)O[C@@]2(C/C=C(/C)C(=O)O)C4=O)C3=O` [gambogic acid], in data set [1], the effect on psoriasis entry is “improve” and the “expression of ICAM-1” value is listed as “inhibiting”.

With “Efalizumab: humanized monoclonal antibody against LFA-1”, the Adverse event result in data set [2] was “Progressive multifocal leukoencephalopathy”. In addition, the “cell-surface molecules involved in T cell activation (CD3, TCR, CD4, CD8, CD28, integrin VLA-4)” value in data set [3] is listed as “downregulate”. Moreover, the “co-stimulatory molecules ICOS, OX40, CD27, and 4-1BB” value in data set [4] (human T cells) is “downregulating”. In addition, the “proliferation and cytokine production of human T cells” value in data set [4] was “potently inhibiting”.

“KHK4083: fully human monoclonal antibody against OX40”: in data set [5] (setting [8]), the Adverse event result is given as “Mild or moderate chills, infusion site reactions” and the PASI scores result is on record as “PASI scores↓”. The efficacy result in data set [5] (highest dose (10 mg/ kg), patients with mild to moderate plaque psoriasis, ref Papp et al., 2017) was “good efficacy”. For the same molecule, the safety and tolerability entry in data set [5] (phase I study, ref Papp et al., 2017) was “safe and well tolerated”.

“Anti-p40: approved drug for psoriasis treatment, binds to the p40 subunits of IL-23 and IL-12”: the “IL-23A-induced IL-17A production” value in data set [6] is on record as “inhibit”.

As to `CC1(C)[C@@H](O[C@H]2O[C@H](C(=O)O)[C@@H](O)[C@H](O)[C@H]2O[C@@H]2O[C@H](C(=O)O)[C@@H](O)[C@H](O)[C@H]2O)CC[C@]2(C)[C@H]3C(=O)C=C4[C@@H]5C[C@@](C)(C(=O)O)CC[C@]5(C)CC[C@@]4(C)[C@]3(C)CC[C@@H]12` [glycyrrhizin], in data set [1], the effect on psoriasis result is reported as “improve” and the “expression of ICAM-1” value is recorded as “inhibiting”.

B1: Bleselumab: fully human IgG4 monoclonal antibody (mAb) that targets CD40 (antibody, chains of the INN, looked up, V domains shown)
VH: QLQLQESGPGLLKPSETLSLTCTVSGGSISSPGYYGGWIRQPPGKGLEWIGSIYKSGSTYHNPSLKSRVTISVDTSKNQFSLKLSSVTAADTAVYYCTRPVVRYFGWFDPWGQGTLVTVSS
VL: AIQLTQSPSSLSASVGDRVTITCRASQGISSALAWYQQKPGKAPKLLIYDASNLESGVPSRFSGSGSGTDFTLTISSLQPEDFATYYCQQFNSYPTFGQGTKVEIK
As to B1, the clinically malignant events in data set [7] (as compared to CD40L-specific mAbs, ref Anil Kumar et al., 2018) is “no clinically malignant events”. Further, in data set [7], the “Efficacy (PASI scores of psoriasis)” value was “Ineffective” and the Adverse event result is recorded as “Transient elevations of liver transaminase enzymes”. In data set [7] (listed as bleselumab), the “Efficacy (PASI scores of psoriasis)” value was “did not improve” and the Adverse event entry is reported as “transient elevations in liver transaminase enzymes”.
